From patent publication US20110015371A1 (Vertex Pharmaceuticals Incorporated, priority 1994, published 2011) come the findings set out here.

Where a name gives a salt, the structure may show the parent alone. Non-standard residues stand in square brackets, D forms with d. Residues, ends and D or L forms follow the SMILES beside them. *: point of attachment. Hyp = O=C(O)[C@@H]1C[C@@H](O)CN1; Tic = O=C(O)[C@@H]1Cc2ccccc2CN1; Bn = c1ccc(C*)cc1

The subject of the first experiment is Human Peripheral Blood Mononuclear Cells (PBMC) or Enriched Adherent Mononuclear Cells. Nature of the experiment: Cell assay: IL-1β assay with human PBMC or enriched adherent mononuclear cells. The class given is cell-based. Conditions: Example 4 table; LPS-stimulated cells, mature IL-1β in supernatant by ELISA. The source says: IL-1β Assay with a Mixed Population of Human Peripheral Blood Mononuclear Cells (PBMC) or Enriched Adherent Mononuclear Cells
Processing of pre-IL-1S by ICE can be measured in cell culture using a variety of cell sources. Human PBMC obtained from healthy donors provides a mixed population of lymphocyte subtypes and mononuclear cells that produce a spectrum of interleukins and cytokines in response to many classes of physiological stimulators. Adherent mononuclear cells from PBMC provides an enriched source of normal monocytes for selective studies of cytokine production by activated cells.
An initial dilution series of test compound in DMSO or ethanol is prepared, with a subsequent dilution into RPMI-10% FBS media (containing 2 mM L-glutamine, 10 mM HEPES, 50 U and 50 ug/ml pen/strep) respectively to yield drugs at 4× the final test concentration containing 0.4% DMSO or 0.4% ethanol. The final concentration of DMSO is 0.1% for all drug dilutions. A concentration titration which brackets the apparent Ki for a test compound determined in an ICE inhibition assay is generally used for the primary compound screen.
We generally test 5-6 compound dilutions and have performed the cellular component of the assay in duplicate, with duplicate ELISA determinations on each cell culture supernatant.
Buffy coat cells isolated from one pint human blood (yielding 40-45 ml final volume plasma plus cells) are diluted with media to 80 ml and LeukoPREP separation tubes (Becton Dickinson) are each overlaid with 10 ml of cell suspension. After 15 min centrifugation at 1500-1800×g, the plasma/media layer is aspirated and then the mononuclear cell layer is collected with a Pasteur pipette and transferred to a 15 ml conical centrifuge tube (Corning). Media is added to bring the volume to 15 ml, gently mix the cells by inversion and centrifuge at 300×g for 15 min. Resuspend the PBMC pellet in a small volume of media, count cells and adjust to 6×10^6 cells/ml.
For the cellular assay, add 1.0 ml of the cell suspension to each well of a 24-well flat bottom tissue culture plate (Corning), 0.5 ml test compound dilution and 0.5 ml LPS solution (Sigma #L-3012; 20 ng/ml solution prepared in complete RPMI media; final LPS concentration 5 ng/ml). The 0.5 ml additions of test compound and LPS are usually sufficient to mix the contents of the wells. Three control mixtures are run per experiment, with either LPS alone, solvent vehicle control, and/or additional media to adjust the final culture volume to 2.0 ml. The cell cultures are incubated for 16-18 hr at 37° C. in the presence of 5% CO2.
At the end of the incubation period, cells are harvested and transferred to 15 ml conical centrifuge tubes. After centrifugation for 10 min at 200×g, supernatants are harvested and transferred to 1.5 ml Eppendorf tubes. It may be noted that the cell pellet may be utilized for a biochemical evaluation of pre-IL-1S and/or mature IL-1β content in cytosol extracts by western blotting or ELISA with pre-IL-1β specific antisera.
PBMC are isolated and prepared as described above. Media (1.0 ml) is first added to wells followed by 0.5 ml of the PBMC suspension. After a one hour incubation, plates are gently shaken and nonadherent cells aspirated from each well. Wells are then gently washed three times with 1.0 ml of media and final resuspended in 1.0 ml media. The enrichment for adherent cells generally yields 2.5−3.0×10^5 cells per well. The addition of test compounds, LPS, cell incubation conditions and processing of supernatants proceeds as described above.
We have used Quantikine kits (R&D Systems) for measurement of mature IL-1β. Assays are performed according to the manufacturer's directions. Mature IL-1β levels of about 1-3 ng/ml in both PBMC and adherent mononuclear cell positive controls are observed. ELISA assays are performed on 1:5, 1:10 and 1:20 dilutions of supernatants from LPS-positive controls to select the optimal dilution for supernatants in the test panel.
(In general: ELISA stands for enzyme-linked immunosorbent assay.)
What is called IC50 is the point on the concentration scale where inhibition reaches its midpoint. A low value points to higher potency. For `O=C[C@H](CC(=O)O)NC(=O)Cn1c(Cc2ccccc2)ccc(NC(=O)CCCc2ccccc2)c1=O` [Compound 54l, 3(S)3-(6-Benzyl-1,2-dihydro-2-oxo-3-(4-phenylbutyryl)carbonylamino-1-pyridyl)acetylamino-4-oxobutanoic acid], the 50% inhibitory concentration (IC50) was 7 µM.

The same experiment, now with this note: Homo sapiens, PBMC, Example 4 table; LPS-stimulated cells, mature IL-1β in supernatant by ELISA.
As to `O=C[C@H](CC(=O)O)NC(=O)[C@@H]1CCCN2C(=O)CC[C@H](NC(=O)CCc3ccccc3)C(=O)N12` [Compound 47a, [3S, (1S,9S)]3-(6,10-Dioxo-octahydro-9-(3-phenylpropionylamino)-6H-pyridazino[1,2-a][1,2]diazepine-1-carboxamido)-4-oxobutanoic acid], the IC50 came out at 2.1 µM.

Compound `O=C[C@H](CC(=O)O)NC(=O)Cn1c(CCc2ccccc2)ccc(NC(=O)CCc2ccccc2)c1=O` [Compound 54c, 3(S)3-(1,2-Dihydro-2-oxo-6-phenethyl-3(3-phenyl-propionyl)amino-1-pyridyl)acetylamino-4-oxobutanoic acid] showed an IC50 of over 19 µM.

The compound `CC(=O)N[C@@H](Cc1ccc(O)cc1)C(=O)Nc1ccc(Cc2ccccc2)n(CC(=O)N[C@H](C=O)CC(=O)O)c1=O` [Compound 54i, 3(S)3-(3-(2-Acetyl-L-tyrosinyl)amino-6-benzyl-1,2-dihydro-2-oxo-1-pyridyl)acetylamino-4-oxobutanoic acid] had an IC50 of 2.4 µM.

Another experiment addresses T1, ICE (Homo sapiens, UniProt P29466).
T1 sequence (P29466 120-297 limits assumed): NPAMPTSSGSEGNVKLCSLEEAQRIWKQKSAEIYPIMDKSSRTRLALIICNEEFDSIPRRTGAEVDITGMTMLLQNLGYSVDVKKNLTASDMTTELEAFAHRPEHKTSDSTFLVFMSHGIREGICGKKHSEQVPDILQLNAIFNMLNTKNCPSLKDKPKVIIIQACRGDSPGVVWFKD
T1 sequence (P29466 317-404 limits assumed): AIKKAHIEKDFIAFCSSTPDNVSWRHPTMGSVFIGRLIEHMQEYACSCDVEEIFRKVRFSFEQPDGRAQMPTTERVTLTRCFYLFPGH
Nature of the experiment: Enzyme assay with UV-visible substrate (Succinyl-Tyr-Val-Ala-Asp-pNitroanilide). The class given is biochemical. The settings on record: Example 2 table. The protocol:
1. Enzyme Assay with UV-Visible Substrate
This assay is run using an Succinyl-Tyr-Val-Ala-Asp-pNitroanilide substrate. Synthesis of analogous substrates is described by L. A. Reiter (Int. J. Peptide Protein Res. 43, 87-96 (1994)). The assay mixture contains:
The visible ICE assay is run in a 96-well microtiter plate. Buffer, ICE and DMSO (if inhibitor is present) are added to the wells in the order listed. The components are left to incubate at room temperature for 15 minutes starting at the time that all components are present in all wells. The microtiter plate reader is set to incubate at 37° C. After the 15 minute incubation, substrate is added directly to the wells and the reaction is monitored by following the release of the chromophore (pNA) at 405-603 nm at 37° C. for 20 minutes. A linear fit of the data is performed and the rate is calculated in mOD/min. DMSO is only present during experiments involving inhibitors, buffer is used to make up the volume to 100 μl in the other experiments.
For determination of enzyme inhibition constants (Ki) or the mode of inhibition (competitive, uncompetitive or noncompetitive), the rate data determined in the enzyme assays at varying inhibitor concentrations are computer-fit to standard enzyme kinetic equations (see I. H. Segel, Enzyme Kinetics, Wiley-Interscience, 1975).
As a reminder, the Ki is the equilibrium dissociation constant of an inhibitor or competing ligand from its target. Read a low Ki as a stronger hold on the target. With `CC(=O)N[C@@H](Cc1ccc(O)cc1)C(=O)N[C@H](C(=O)N1Cc2ccccc2C[C@H]1C(=O)N[C@H](C=O)CC(=O)O)C(C)C` [L, N-[2-(N-Acetyl-tyrosinyl-valinyl)-(S)-1,2,3,4-tetrahydroisoquinoline-3-carbonyl]-3-amino-oxobutanoic acid] (Ac-YV[Tic]D-aldehyde), the affinity corresponds to a Ki of 0.014 µM.

The same experiment, now with this note: Example 4 table.
Compound `CC(C(=O)N[C@H](C=O)CC(=O)O)n1c(Cc2ccccc2)ccc(NC(=O)CCc2ccccc2)c1=O` (mixture of isomers) [Compound 54h, 3(S), N(2(R,S))3-(2-(6-Benzyl-1,2-dihydro-2-oxo-3-(3-phenylpropionyl)amino-1-pyridyl)propionylamino)-4-oxobutanoic acid] yielded an inhibition constant Ki of 0.97 µM.

`O=CC(CC(=O)O)NC(=O)C1CCc2ncc(NC(=O)c3ccccc3)c(=O)n21` (single isomer, unassigned) [Compound 7a]: the affinity, expressed as Ki, was 35 µM.

Take `O=CC(CC(=O)O)NC(=O)C1CCc2ncc(NC(=O)c3ccccc3)c(=O)n21` (single isomer, unassigned) [Compound 7b]: the Ki is 1.2 µM.

Compound `O=C[C@H](CC(=O)O)NC(=O)CN(CCc1ccccc1)C(=O)c1ncc(CCCc2ccccc2)[nH]1` [Compound 25, (3S)-(2-{Phenethyl-[5-(3-phenylpropyl)-1H-imidazole-2-carbonyl]amino}acetylamino)-4-oxobutanoic acid trifluoroacetic acid salt] registered an inhibitory constant (Ki) of 6.2 µM.

In the case of `O=C[C@H](CC(=O)O)NC(=O)[C@@H]1CCCN2C(=O)CC[C@H](NC(=O)CCc3ccccc3)C(=O)N12` [Compound 47a, [3S, (1S,9S)]3-(6,10-Dioxo-octahydro-9-(3-phenylpropionylamino)-6H-pyridazino[1,2-a][1,2]diazepine-1-carboxamido)-4-oxobutanoic acid], the inhibition constant (Ki) turned out to be 0.019 µM.

`O=C[C@H](CC(=O)O)NC(=O)Cn1c(CCc2ccccc2)ccc(NC(=O)CCc2ccccc2)c1=O` [Compound 54c, 3(S)3-(1,2-Dihydro-2-oxo-6-phenethyl-3(3-phenyl-propionyl)amino-1-pyridyl)acetylamino-4-oxobutanoic acid] returned a Ki of 1.2 µM.

Turning to `O=C[C@H](CC(=O)O)NC(=O)Cn1c(-c2ccccc2)ccc(NC(=O)CCc2ccccc2)c1=O` [Compound 54f, 3(S)3-(1,2-Dihydro-2-oxo-6-phenyl-3-(3-phenyl-propionyl)amino-1-pyridyl)acetylamino-4-oxobutanoic acid], the Ki was found to be 0.9 µM.

With `CC(=O)N[C@@H](Cc1ccc(O)cc1)C(=O)Nc1ccc(Cc2ccccc2)n(CC(=O)N[C@H](C=O)CC(=O)O)c1=O` [Compound 54i, 3(S)3-(3-(2-Acetyl-L-tyrosinyl)amino-6-benzyl-1,2-dihydro-2-oxo-1-pyridyl)acetylamino-4-oxobutanoic acid], the inhibition constant Ki turned out to be 0.054 µM.

Turning to `O=C[C@H](CC(=O)O)NC(=O)Cn1c(Cc2ccccc2)ccc(NC(=O)CCCc2ccccc2)c1=O` [Compound 54l, 3(S)3-(6-Benzyl-1,2-dihydro-2-oxo-3-(4-phenylbutyryl)carbonylamino-1-pyridyl)acetylamino-4-oxobutanoic acid], the Ki came out at 0.215 µM.

Still in this experiment, the particulars now being: Example 6 table.
In turn, `O=C[C@H](CC(=O)O)NC(=O)CN1CCCC[C@H](NC(=O)CCc2ccc(O)cc2)C1=O` [Compound 92, 3-(S)-(2-(3[3-(S)-(4-Hydroxy-phenyl)-propionylamino]-2-oxo-azepan-1-yl)-acetylamino)-4-oxo-butyric acid] displayed a Ki of 3.8 µM.

`O=C(O)C[C@H](NC(=O)[C@@H]1CCc2ncc(NC(=O)CCc3ccccc3)c(=O)n21)C(=O)c1ncc(-c2c(Cl)cccc2Cl)o1` [Compound 102c, 4-[5-(2,6-Dichloro-phenyl)-oxazol-2-yl]-4-oxo-(3S)-{[4-oxo-3-(3-phenyl-propionylamino)-4,6,7,8-tetrahydro-pyrrolo[1,2-a]pyrimidine-(6S)-carbonyl]-amino}-butyric acid] showed a Ki of 0.68 µM.

`O=C[C@H](CC(=O)O)NC(=O)CN1CCN(Cc2ccccc2)C[C@H](NC(=O)OCc2ccccc2)C1=O` [Compound 114b, 3(S)-{2-[4-Benzyl-7-oxo-6(S)—(N-benzyloxycarbonylamino)-[1,4]diazepan-1-yl]-acetylamino}-4-oxo-butyric acid trifluoroacetic acid salt] displayed an inhibitory constant (Ki) of 3.7 µM.

`O=C[C@H](CC(=O)O)NC(=O)[C@@H]1CCCN2C(=O)C[C@@H](NC(=O)CCc3ccccc3)C(=O)N12` [Compound 132b] displayed a Ki of 12.5 µM.

With `O=C[C@H](CC(=O)O)NC(=O)[C@@H]1CS[C@@H]2CCC[C@H](NC(=O)CCc3ccccc3)C(=O)N21` [Compound 141], the affinity corresponds to a Ki of 0.67 µM.

In turn, `CC(C)[C@H](NC(=O)OCc1ccccc1)C(=O)N[C@@H](C)C(=O)N[C@@H](CC(=O)O)C(=O)c1ncco1` [Compound 152] returned a Ki of 8.8 µM.

Compound `CC(C)[C@H](NC(=O)OCc1ccccc1)C(=O)N[C@@H](C)C(=O)N[C@@H](CC(=O)O)C(=O)c1nc(-c2ccccc2)co1` [Compound 153] displayed a Ki of 0.24 µM.

For `CC(=O)N[C@@H](Cc1ccc(O)cc1)C(=O)N[C@H](C(=O)N1CCC[C@H]1C(=O)N[C@@H](CC(=O)O)C(=O)c1ncc(-c2c(Cl)cccc2Cl)o1)C(C)C` [Compound 155], the affinity corresponds to a Ki of 0.023 µM.

As to `O=C(O)C[C@H](NC(=O)[C@@H]1CCCN1C(=O)c1ncc(CCCc2ccccc2)[nH]1)C(=O)c1ncc(-c2c(Cl)cccc2Cl)o1` [Compound 157], the Ki came to 0.26 µM.

As to `CC(=O)N[C@H](C(=O)N1C[C@H](OCc2ccccc2)C[C@H]1C(=O)N[C@H](C=O)CC(=O)O)C(C)C` [Compound 158] (Ac-Val-[Hyp](Bn)-Asp-aldehyde), the Ki turned out to be 1.1 µM.

In the case of `CC(=O)N[C@@H](Cc1ccc(O)cc1)C(=O)N[C@H](C(=O)N1C[C@H](Oc2ccccc2)CC1C(=O)N[C@@H](CC(=O)O)C(=O)CSCc1ccccc1Cl)C(C)C` (stereo partly shown) [Compound 161], the affinity corresponds to a Ki of 0.011 µM. Against the preceding compound, the Ki is about 100-fold lower.
